The nature of data set [1]: Thermogravimetric analysis (TGA) of mass loss on heating. The class given is physicochemical. Conditions: 30° C. to 600° C. at 5° C./min; for Tpeak of mass loss (° C.) Air (rep 1) / Tpeak of mass loss (° C.) Air (rep 2): TGA in air; for Tpeak of mass loss (° C.) Nitrogen (rep 1) / Tpeak of mass loss (° C.) Nitrogen (rep 2): TGA in nitrogen. The procedure: Prior to panel testing, the cooling agents were subjected to thermogravimetric analysis (TGA) to understand their behavior as they are heated. As is known in the art, TGA is an analytical method which can monitor the mass loss of a sample as it is heated to temperatures of up to 1000° C. and higher.
All measurements were carried out on a Perkin Elmer STA6000 TGA thermogravimetric analyzer. For solid samples, a spatula was used to transfer 5-20 mg of material into the crucible of the analyzer. Oils were introduced to the instrument by transferring 5-20 mg using a Pasteur pipette onto a small portion of Cambridge filter pad which was placed in the crucible. All samples were heated from 30° C. to 600° C. at a constant rate of 5° C./min. This was carried out for each compound twice in air and twice in nitrogen. For a small number of samples, the run was stopped at 500-600° C. when full mass loss had been observed. For comparative purposes, menthol was also analyzed.
The onset temperature of mass loss for each compound was determined by visual inspection of the TGA traces on the computer software and the results are summarized in Table 2.

The conditions of data set [2]: from the literature, cited from earlier work; for Boiling point (° C.) @ 760 mmHg unless stated: @ 760 mmHg (atmospheric pressure), approximate.
The conditions of data set [3]: cited from earlier work; for Vapor pressure (mmHg) @ 25° C.: approximate, from the literature.
Data set [4] relates to volunteers. Nature of the data set: Example 1 observational testing: perceived cooling intensity, Vype eTank Pro e-cigarette. The format is in vivo. Conditions: 10 volunteers. The procedure:
10 volunteers were asked to use each cooling agent sample in a Vype eTank Pro (an electronic cigarette device). All cooling agents were used at a concentration of 0.18% except for menthol which in one sample was used at the current commercial concentration of 1.235%. Each of the menthol samples were tested for comparative purposes.
(§1) Each volunteer was asked to assess the cooling intensity on an objective basis (i.e. not considering personal preference) and a subjective basis. The objective assessment required the volunteer to rate the overall perceived cooling intensity from 0 to 10, where 0 was no cooling perceivable and 10 was very strong cooling sensation, and to place the cooling sensation, e.g. in the mouth, throat etc. The subjective assessment required the cooling intensity to be ranked as (1) much too low, (2) slightly too low, (3) just right, (4) slightly too high or (5) much too high.

Data set [5] deals with volunteers. Kind of data set: Example 2: cooling intensity of WS-3 e-liquid samples, eTank Pro e-cigarette. The conditions noted are these: minimum of 4 volunteers, scale 0-10. The format is in vivo.
Excerpt: A minimum of 4 volunteers were asked to test each of the following e-liquid samples in an eTank Pro (an electronic cigarette device): • WS-3 at 2.5 wt % in glycerol/propylene glycol; • WS-3 at 5 wt % in glycerol/propylene glycol; and • WS-3 at 10 wt % in glycerol/propylene glycol.
as §1, with “basis in the same manner as Example 1.” for “basis.”

Setting [6] is: 0.18% in e-liquid, 0 = no cooling perceivable, 10 = very strong cooling sensation.

On to `CC(C)[C@@H]1CC[C@@H](C)CC12OCC(CO)O2` (single isomer, unassigned; (-)) [Frescolat ® MGA, (−)-menthone 1,2-glycerol ketal], for which, in data set [1], the “Tpeak of mass loss (° C.) Air (rep 1)” value worked out at 93 °C, the “Tpeak of mass loss (° C.) Air (rep 2)” value is 85 °C, the “Tpeak of mass loss (° C.) Nitrogen (rep 1)” value came out at 102 °C and the “Tpeak of mass loss (° C.) Nitrogen (rep 2)” value came out at 94 °C. Besides, the “Boiling point (° C.) @ 760 mmHg unless stated” value in data set [2] is 138-142 °C. The “Vapor pressure (mmHg) @ 25° C.” value in data set [3] is 2.15E−5 mmHg. Moreover, in data set [4] (setting [6]), the “Average Cooling Intensity (0-10)” value was 1.
For `CCNC(=O)[C@H]1C[C@@H](C)CC[C@@H]1C(C)C` (stereo in doubt) [WS-3, (1S,2R,5S)-N-ethyl-5-methyl-2-(propan-2-yl)cyclohexanecarboxamide], in data set [1], the “Tpeak of mass loss (° C.) Air (rep 1)” value turned out to be 127 °C, the “Tpeak of mass loss (° C.) Air (rep 2)” value was 132 °C, the “Tpeak of mass loss (° C.) Nitrogen (rep 1)” value came to 132 °C and the “Tpeak of mass loss (° C.) Nitrogen (rep 2)” value is 128 °C. Also, the “Boiling point (° C.) @ 760 mmHg unless stated” value in data set [2] was 340.55 °C. Further, the “Average Cooling Intensity (0-10)” value in data set [5] (2.5 wt % in glycerol/propylene glycol) worked out at 6. In addition, the “Average Cooling Intensity (0-10)” value in data set [5] (5 wt % in glycerol/propylene glycol) was 8.5. Moreover, the “Average Cooling Intensity (0-10)” value in data set [5] (10 wt % in glycerol/propylene glycol) is recorded as 9.8. Further, the “Vapor pressure (mmHg) @ 25° C.” value in data set [3] is on record as 8.50E−5 mmHg. The “Average Cooling Intensity (0-10)” value in data set [4] (setting [6]) is given as 3.045.
In the case of `CC(C)[C@@H]1CC[C@@H](C)C[C@H]1OCC(O)CO` (stereo partly drawn) [Coolact ® 10, 3-((−)-menthoxy)propane-1,2-diol], in data set [1], the “Tpeak of mass loss (° C.) Air (rep 1)” value amounted to 119 °C, the “Tpeak of mass loss (° C.) Air (rep 2)” value was found to be 112 °C, the “Tpeak of mass loss (° C.) Nitrogen (rep 1)” value worked out at 115 °C and the “Tpeak of mass loss (° C.) Nitrogen (rep 2)” value is 119 °C. The “Boiling point (° C.) @ 760 mmHg unless stated” value in data set [2] was 362.8 ± 22.0 °C. In addition, in data set [3], the “Vapor pressure (mmHg) @ 25° C.” value is reported as 9.88E−7 mmHg. For the same compound, the “Average Cooling Intensity (0-10)” value in data set [4] (setting [6]) was found to be 0.75.
Turning to `CC(C)[C@@H]1CC[C@@H](C)C[C@H]1C(=O)NCCc1ccccn1` [Evercool ® 190, (1R,2S,5R)-N-(2-(pyridin-2-yl)ethyl)menthylcarboxamide], in data set [1], the “Tpeak of mass loss (° C.) Air (rep 1)” value stood at 161 °C, the “Tpeak of mass loss (° C.) Air (rep 2)” value is 164 °C, the “Tpeak of mass loss (° C.) Nitrogen (rep 1)” value was 169 °C and the “Tpeak of mass loss (° C.) Nitrogen (rep 2)” value is 174 °C. The “Boiling point (° C.) @ 760 mmHg unless stated” value in data set [2] is 461.6 ± 24.0 °C. Besides, the “Vapor pressure (mmHg) @ 25° C.” value in data set [3] is on record as 1.06E−8 mmHg. Further, the “Average Cooling Intensity (0-10)” value in data set [4] (setting [6]) was 7.1.
For the compound `CC(O)C(=O)O[C@@H]1C[C@H](C)CC[C@H]1C(C)C` (stereo partly drawn) [Frescolat ® ML, (−)-menthyl lactate], in data set [1], the “Tpeak of mass loss (° C.) Air (rep 1)” value worked out at 86 °C, the “Tpeak of mass loss (° C.) Air (rep 2)” value came out at 88 °C, the “Tpeak of mass loss (° C.) Nitrogen (rep 1)” value is 86 °C and the “Tpeak of mass loss (° C.) Nitrogen (rep 2)” value is 91 °C. In data set [2], the “Boiling point (° C.) @ 760 mmHg unless stated” value is 304.0 ± 15.0 °C. In addition, the “Vapor pressure (mmHg) @ 25° C.” value in data set [3] was 8.58E−5 mmHg. The “Average Cooling Intensity (0-10)” value in data set [4] (setting [6]) was 2.
Consider `CC1CCC(C(C)C)C(O)C1` (stereo not shown) [Menthol, menthol, reference compound], for which, in data set [1], the “Tpeak of mass loss (° C.) Air (rep 1)” value came to 53 °C, the “Tpeak of mass loss (° C.) Air (rep 2)” value came to 55 °C, the “Tpeak of mass loss (° C.) Nitrogen (rep 1)” value stood at 52 °C and the “Tpeak of mass loss (° C.) Nitrogen (rep 2)” value was 55 °C. The “Boiling point (° C.) @ 760 mmHg unless stated” value in data set [2] was 212 °C. Also, in data set [3] (25° C.), the Vapor pressure entry was “approximately 1.02 Pa”. The “Average Cooling Intensity (0-10)” value in data set [4] (setting [6]) was found to be 2.1. Moreover, in data set [4] (1.235% (current commercial concentration) in e-liquid, scale 0-10), the “Average Cooling Intensity (0-10)” value came to 8.
For `CC(C)[C@@H]1CC[C@@H](C)C[C@H]1OC(=O)CCC(=O)O` [Monomenthyl succinate, (−)-menthyl succinate], in data set [1], the “Tpeak of mass loss (° C.) Air (rep 1)” value was 144 °C, the “Tpeak of mass loss (° C.) Air (rep 2)” value was 148 °C, the “Tpeak of mass loss (° C.) Nitrogen (rep 1)” value was found to be 151 °C and the “Tpeak of mass loss (° C.) Nitrogen (rep 2)” value is 151 °C. In addition, the “Boiling point (° C.) @ 760 mmHg unless stated” value in data set [2] was 374.35 °C. In addition, the “Vapor pressure (mmHg) @ 25° C.” value in data set [3] is on record as 1.23E−6 mmHg.
Turning to `CCOC(=O)CNC(=O)[C@@H]1C[C@H](C)CC[C@H]1C(C)C` [WS-5, ethyl-2-[[(1R,2S,5R)-5-methyl-2-propan-2-ylcyclohexanecarbonyl]amino] acetate], in data set [1], the “Tpeak of mass loss (° C.) Air (rep 1)” value was found to be 149 °C, the “Tpeak of mass loss (° C.) Air (rep 2)” value was 151 °C, the “Tpeak of mass loss (° C.) Nitrogen (rep 1)” value turned out to be 154 °C and the “Tpeak of mass loss (° C.) Nitrogen (rep 2)” value amounted to 158 °C. For the same compound, the “Boiling point (° C.)” value in data set [2] (@ 2.00 mmHg) is recorded as 151.00 (@ 2.00 mmHg) ° C. For the same compound, in data set [4] (setting [6]), the “Average Cooling Intensity (0-10)” value worked out at 2.5454.
Regarding `COc1ccc(NC(=O)[C@@H]2C[C@H](C)CC[C@H]2C(C)C)cc1` [WS-12], in data set [1], the “Tpeak of mass loss (° C.) Air (rep 1)” value worked out at 202 °C, the “Tpeak of mass loss (° C.) Air (rep 2)” value is 203 °C, the “Tpeak of mass loss (° C.) Nitrogen (rep 1)” value is 199 °C and the “Tpeak of mass loss (° C.) Nitrogen (rep 2)” value stood at 197 °C. For the same compound, the “Boiling point (° C.) @ 760 mmHg unless stated” value in data set [2] is 447.8 ± 28.0 °C. In data set [3], the “Vapor pressure (mmHg) @ 25° C.” value is 3.25E−8 mmHg.
In the case of `CNC(=O)C(C)(C(C)C)C(C)C` [WS-23, N,2,3-trimethyl-2-propan-2-ylbutanamide], in data set [1], the “Tpeak of mass loss (° C.) Air (rep 1)” value was determined as 88 °C, the “Tpeak of mass loss (° C.) Air (rep 2)” value stood at 88 °C, the “Tpeak of mass loss (° C.) Nitrogen (rep 1)” value amounted to 90 °C and the “Tpeak of mass loss (° C.) Nitrogen (rep 2)” value worked out at 86 °C. Also, the “Boiling point (° C.) @ 760 mmHg unless stated” value in data set [2] was 233.00-234.00 °C. Also, in data set [4] (setting [6]), the “Average Cooling Intensity (0-10)” value is reported as 2.1818.
